In PubChem BioAssay (NCI):
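Where inhibition never reached the appropriate level, the endpoint shown equals the highest concentration tested. Otherwise, values were interpolated linearly from a five-concentration, 48-hour dose response in 96-well plates. Definition used: TGI = concentration required for complete inhibition of growth.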

Experiments:
Test in all cases: NCI anticancer screen, dose series, 48 h
HT29 colon = tested on: HT29 colon
786-0 renal = tested on: 786-0 renal
HOP-92 NSCLC = tested on: HOP-92 NSCLC
A549 NSCLC = tested on: A549 NSCLC
SK-MEL-5 melanoma = tested on: SK-MEL-5 melanoma
TK-10 renal = tested on: TK-10 renal
NCI-H460 lung = tested on: NCI-H460 lung
NCI-H226 lung = tested on: NCI-H226 lung
SW-620 colon = tested on: SW-620 colon
MALME-3M melanoma = tested on: MALME-3M melanoma
RPMI-8226 leukemia = tested on: RPMI-8226 leukemia
SK-OV-3 ovarian = tested on: SK-OV-3 ovarian
SK-MEL-28 melanoma = tested on: SK-MEL-28 melanoma
SK-MEL-2 melanoma = tested on: SK-MEL-2 melanoma
MDA-N = tested on: MDA-N
NCI-H522 lung = tested on: NCI-H522 lung
HOP-62 NSCLC = tested on: HOP-62 NSCLC
SN12C renal = tested on: SN12C renal
U251 CNS = tested on: U251 CNS
DU-145 prostate = tested on: DU-145 prostate
COLO 205 colon = tested on: COLO 205 colon
HCT-116 colon = tested on: HCT-116 colon
SNB-75 CNS = tested on: SNB-75 CNS
SF-539 CNS = tested on: SF-539 CNS
OVCAR-4 ovarian = tested on: OVCAR-4 ovarian
NCI-H23 lung = tested on: NCI-H23 lung
OVCAR-5 ovarian = tested on: OVCAR-5 ovarian
HCC-2998 colon = tested on: HCC-2998 colon
HCT-15 colon = tested on: HCT-15 colon
SF-295 CNS = tested on: SF-295 CNS
SF-268 CNS = tested on: SF-268 CNS
NCI/ADR-RES ovarian = tested on: NCI/ADR-RES ovarian
LOX IMVI melanoma = tested on: LOX IMVI melanoma
MDA-MB-231 breast = tested on: MDA-MB-231 breast
OVCAR-3 ovarian = tested on: OVCAR-3 ovarian
SR leukemia = tested on: SR leukemia
M14 melanoma = tested on: M14 melanoma
HL-60(TB) leukemia = tested on: HL-60(TB) leukemia
UACC-257 melanoma = tested on: UACC-257 melanoma
MDA-MB-435 = tested on: MDA-MB-435
OVCAR-8 ovarian = tested on: OVCAR-8 ovarian
UACC-62 melanoma = tested on: UACC-62 melanoma
CCRF-CEM leukemia = tested on: CCRF-CEM leukemia
PC-3 prostate = tested on: PC-3 prostate
IGROV1 ovarian = tested on: IGROV1 ovarian
SNB-19 CNS = tested on: SNB-19 CNS
MCF7 breast = tested on: MCF7 breast
UO-31 renal = tested on: UO-31 renal
T-47D breast = tested on: T-47D breast
ACHN renal = tested on: ACHN renal
KM12 colon = tested on: KM12 colon
EKVX NSCLC = tested on: EKVX NSCLC
BT-549 breast = tested on: BT-549 breast
HS 578T breast = tested on: HS 578T breast
MOLT-4 leukemia = tested on: MOLT-4 leukemia
A498 renal = tested on: A498 renal
CAKI-1 renal = tested on: CAKI-1 renal
RXF 393 renal = tested on: RXF 393 renal
K-562 leukemia = tested on: K-562 leukemia

`COc1ccc(C(=O)N2CCN(c3ccc4c(c3)OCC(=O)N4)CC2)cc1OC` gave a TGI (HT29 colon) greater than 100 µM, a TGI (786-0 renal) greater than 100 µM and a TGI (HOP-92 NSCLC) greater than 100 µM. For the same compound, the TGI (A549 NSCLC) was greater than 100 µM, the TGI (SK-MEL-5 melanoma) was greater than 100 µM and the TGI (TK-10 renal) was greater than 100 µM. The TGI (NCI-H460 lung) was greater than 100 µM, the TGI (NCI-H226 lung) was greater than 100 µM and the TGI (SW-620 colon) was greater than 100 µM. The TGI (MALME-3M melanoma) was greater than 100 µM, the TGI (RPMI-8226 leukemia) was greater than 100 µM and the TGI (SK-OV-3 ovarian) was greater than 100 µM. It also gave a TGI (SK-MEL-28 melanoma) greater than 100 µM, a TGI (SK-MEL-2 melanoma) greater than 100 µM and a TGI (MDA-N) greater than 100 µM. It also gave a TGI (NCI-H522 lung) greater than 100 µM, a TGI (HOP-62 NSCLC) greater than 100 µM and a TGI (SN12C renal) greater than 100 µM. For the same compound, the TGI (U251 CNS) was greater than 100 µM, the TGI (DU-145 prostate) was greater than 100 µM and the TGI (COLO 205 colon) was greater than 100 µM. For the same compound, the TGI (HCT-116 colon) was greater than 100 µM, the TGI (SNB-75 CNS) was greater than 100 µM and the TGI (SF-539 CNS) was greater than 100 µM. It also gave a TGI (OVCAR-4 ovarian) greater than 100 µM, a TGI (NCI-H23 lung) greater than 100 µM and a TGI (OVCAR-5 ovarian) greater than 100 µM. The TGI (HCC-2998 colon) was greater than 100 µM, the TGI (HCT-15 colon) was greater than 100 µM and the TGI (SF-295 CNS) was greater than 100 µM. For the same compound, the TGI (SF-268 CNS) was greater than 100 µM, the TGI (NCI/ADR-RES ovarian) was greater than 100 µM and the TGI (LOX IMVI melanoma) was greater than 100 µM. It also gave a TGI (MDA-MB-231 breast) greater than 100 µM, a TGI (OVCAR-3 ovarian) greater than 100 µM and a TGI (SR leukemia) greater than 100 µM. The TGI (M14 melanoma) was greater than 100 µM, the TGI (HL-60(TB) leukemia) was greater than 100 µM and the TGI (UACC-257 melanoma) was greater than 100 µM. The TGI (MDA-MB-435) was greater than 100 µM, the TGI (OVCAR-8 ovarian) was greater than 100 µM and the TGI (UACC-62 melanoma) was greater than 100 µM. The TGI (CCRF-CEM leukemia) was greater than 100 µM, the TGI (PC-3 prostate) was greater than 100 µM and the TGI (IGROV1 ovarian) was greater than 100 µM. It also gave a TGI (SNB-19 CNS) greater than 100 µM, a TGI (MCF7 breast) greater than 100 µM and a TGI (UO-31 renal) greater than 100 µM. It also gave a TGI (T-47D breast) greater than 100 µM, a TGI (ACHN renal) greater than 100 µM and a TGI (KM12 colon) greater than 100 µM. The TGI (EKVX NSCLC) was greater than 100 µM, the TGI (BT-549 breast) was greater than 100 µM and the TGI (HS 578T breast) was greater than 100 µM. It also gave a TGI (MOLT-4 leukemia) greater than 100 µM.

For `CN(CC(=O)O)CC(=O)O`, the TGI (HT29 colon) was greater than 100 µM, the TGI (786-0 renal) was greater than 100 µM and the TGI (HOP-92 NSCLC) was greater than 100 µM. The TGI (A549 NSCLC) was greater than 100 µM, the TGI (SK-MEL-5 melanoma) was greater than 100 µM and the TGI (TK-10 renal) was greater than 100 µM. It also gave a TGI (NCI-H460 lung) greater than 100 µM, a TGI (NCI-H226 lung) greater than 100 µM and a TGI (SW-620 colon) greater than 100 µM. The TGI (MALME-3M melanoma) was greater than 100 µM, the TGI (RPMI-8226 leukemia) was greater than 100 µM and the TGI (SK-OV-3 ovarian) was greater than 100 µM. For the same compound, the TGI (A498 renal) was greater than 100 µM, the TGI (SK-MEL-28 melanoma) was greater than 100 µM and the TGI (SK-MEL-2 melanoma) was greater than 100 µM. For the same compound, the TGI (MDA-N) was greater than 100 µM, the TGI (NCI-H522 lung) was greater than 100 µM and the TGI (HOP-62 NSCLC) was greater than 100 µM. The TGI (SN12C renal) was greater than 100 µM, the TGI (CAKI-1 renal) was greater than 100 µM and the TGI (U251 CNS) was greater than 100 µM. The TGI (DU-145 prostate) was greater than 100 µM, the TGI (COLO 205 colon) was greater than 100 µM and the TGI (HCT-116 colon) was greater than 100 µM. It also gave a TGI (SNB-75 CNS) greater than 100 µM, a TGI (SF-539 CNS) greater than 100 µM and a TGI (OVCAR-4 ovarian) greater than 100 µM. It also gave a TGI (NCI-H23 lung) greater than 100 µM, a TGI (OVCAR-5 ovarian) greater than 100 µM and a TGI (HCC-2998 colon) greater than 100 µM. It also gave a TGI (HCT-15 colon) greater than 100 µM, a TGI (SF-295 CNS) greater than 100 µM and a TGI (SF-268 CNS) greater than 100 µM. The TGI (NCI/ADR-RES ovarian) was greater than 100 µM, the TGI (LOX IMVI melanoma) was greater than 100 µM and the TGI (MDA-MB-231 breast) was greater than 100 µM. For the same compound, the TGI (OVCAR-3 ovarian) was greater than 100 µM, the TGI (M14 melanoma) was greater than 100 µM and the TGI (RXF 393 renal) was greater than 100 µM. The TGI (HL-60(TB) leukemia) was greater than 100 µM, the TGI (UACC-257 melanoma) was greater than 100 µM and the TGI (MDA-MB-435) was greater than 100 µM. The TGI (OVCAR-8 ovarian) was greater than 100 µM, the TGI (UACC-62 melanoma) was greater than 100 µM and the TGI (CCRF-CEM leukemia) was greater than 100 µM. The TGI (K-562 leukemia) was greater than 100 µM, the TGI (PC-3 prostate) was greater than 100 µM and the TGI (IGROV1 ovarian) was greater than 100 µM. The TGI (SNB-19 CNS) was greater than 100 µM, the TGI (MCF7 breast) was greater than 100 µM and the TGI (UO-31 renal) was greater than 100 µM. For the same compound, the TGI (T-47D breast) was greater than 100 µM, the TGI (ACHN renal) was greater than 100 µM and the TGI (KM12 colon) was greater than 100 µM. For the same compound, the TGI (EKVX NSCLC) was greater than 100 µM, the TGI (BT-549 breast) was greater than 100 µM and the TGI (HS 578T breast) was greater than 100 µM. It also gave a TGI (MOLT-4 leukemia) greater than 100 µM.

`Cc1occc1C(=S)Nc1ccc(Cl)c(C(=O)OCC(C)C)c1` gave a TGI (HT29 colon) of 26.3 µM, a TGI (786-0 renal) of 33.5 µM and a TGI (HOP-92 NSCLC) of 34.1 µM. For the same compound, the TGI (A549 NSCLC) was 42.4 µM, the TGI (SK-MEL-5 melanoma) was 29 µM and the TGI (TK-10 renal) was 33.5 µM. For the same compound, the TGI (NCI-H460 lung) was 44.9 µM, the TGI (NCI-H226 lung) was 30.4 µM and the TGI (SW-620 colon) was 45.8 µM. The TGI (MALME-3M melanoma) was 36.2 µM, the TGI (RPMI-8226 leukemia) was 75 µM and the TGI (SK-OV-3 ovarian) was 42.4 µM. The TGI (A498 renal) was 30.4 µM, the TGI (SK-MEL-28 melanoma) was 32.3 µM and the TGI (SK-MEL-2 melanoma) was 40.2 µM. For the same compound, the TGI (MDA-N) was 47.8 µM, the TGI (NCI-H522 lung) was 29.2 µM and the TGI (SN12C renal) was 36.3 µM. It also gave a TGI (CAKI-1 renal) of 37.8 µM, a TGI (U251 CNS) of 35.9 µM and a TGI (DU-145 prostate) of 39.8 µM. It also gave a TGI (COLO 205 colon) of 39.9 µM, a TGI (HCT-116 colon) of 28.8 µM and a TGI (SNB-75 CNS) of 29.4 µM. It also gave a TGI (SF-539 CNS) of 43.6 µM, a TGI (OVCAR-4 ovarian) of 39.2 µM and a TGI (NCI-H23 lung) of 45.3 µM. It also gave a TGI (OVCAR-5 ovarian) of 88.1 µM, a TGI (HCC-2998 colon) of 35.3 µM and a TGI (HCT-15 colon) of 36.1 µM. It also gave a TGI (SF-295 CNS) of 33.2 µM, a TGI (SF-268 CNS) of 42.5 µM and a TGI (NCI/ADR-RES ovarian) of 28.6 µM. It also gave a TGI (LOX IMVI melanoma) of 28.6 µM, a TGI (MDA-MB-231 breast) of 31.4 µM and a TGI (OVCAR-3 ovarian) of 46.5 µM. The TGI (M14 melanoma) was 65 µM, the TGI (HL-60(TB) leukemia) was 79.5 µM and the TGI (UACC-257 melanoma) was 40.2 µM. For the same compound, the TGI (MDA-MB-435) was 32.8 µM, the TGI (OVCAR-8 ovarian) was 30.7 µM and the TGI (UACC-62 melanoma) was 26.5 µM. The TGI (CCRF-CEM leukemia) was greater than 100 µM, the TGI (K-562 leukemia) was 55.2 µM and the TGI (PC-3 prostate) was 38.7 µM. The TGI (IGROV1 ovarian) was 34.5 µM, the TGI (SNB-19 CNS) was 31.2 µM and the TGI (MCF7 breast) was 33.3 µM. It also gave a TGI (UO-31 renal) of 33.2 µM, a TGI (T-47D breast) of 34.3 µM and a TGI (ACHN renal) of 43.2 µM. The TGI (KM12 colon) was 27.5 µM, the TGI (EKVX NSCLC) was 31 µM and the TGI (BT-549 breast) was 33.2 µM. It also gave a TGI (HS 578T breast) of 62.6 µM and a TGI (MOLT-4 leukemia) of 44.8 µM.
